{"source": "paper PMC6154683", "about": "“High-Throughput Determination of Sodium Danshensu in Beagle Dogs by the LCMS/MS Method, Employing Liquid-Liquid Extraction Based on 96-Well Format Plates” (Molecules : A Journal of Synthetic Chemistry and Natural …, 2017)", "key": {"[1]": {"assay": "Pharmacokinetic and bioavailability study in beagle dogs after intravenous and oral administration (plasma, LC-MS/MS)", "type": "in vivo", "settings": "for C0: mean ± SD", "experimental": "All the studies on animals were done in accordance with the Guidelines for the Care and Use of Laboratory Animals. Beagle dogs (~10 kg) were purchased from the Shanghai Slack Experimental Animal Co., Ltd. (Shanghai, China) and acclimated in the laboratory for 1 week prior to the experiments, housed in separate cages under room temperature with a 12 h light/dark cycle, and free access to standard diet and water. All the beagle dogs were fasted for 12 h before the experiments with free access to water.\nFor pharmacokinetics study, 24 beagle dogs were randomly divided into four groups (n = 6). Four different dosages (5 mg/kg, 10 mg/kg, 15 mg/kg I.V., 60 mg/kg P.O.) were designed and were assigned randomly to the four groups of beagle dogs. Blood samples (500 μL) were withdrawn from the foreleg vein into heparinized tubes in strict accordance with the time points of the protocol made in advance. Then after centrifuging at 8000 rpm for 10 min, the supernatant plasma sample was transferred into another tube and frozen at −80 °C until analysis. The time points for blood sampling were listed as follows. Pre-dose and subsequently at 0, 0.03, 0.08, 0.17, 0.33, 0.67, 1, 1.5, 2, 3, 4, 6, 8, and 12 h were used for the three intravenous injection groups, and pre-dose, 0.08, 0.17, 0.25, 0.5, 0.75, 1, 1.5, 2, 3, 4, 6, 8, and 12 h were used for the oral administration group.\nFor plasma sample preparation, the LLE in 96-well format plate was used. Prior to analysis, all frozen plasma samples, calibration standards, and quality control samples were thawed and allowed to equilibrate at room temperature. The samples were vortexed adequately using a vortex mixer (Beijing Targintech Co. Ltd., Beijing, China) before pipetting. Samples were prepared using LLE in 96-well deep format plate (2 mL, Corning Life Sciences—Axygen Inc., Union City, CA, USA). An automatic multichannel pipette (INTEGRA Biosciences AG, Zizers, Switzerland) was used for liquid transfer steps. Aliquots of 100 μL plasma were transferred into the 96-well deep format plate. Aliquots of 10 μL of IS solution (25 ng/mL) were added to each well except for the well designated for the double blank plasma. Then 20 μL of 2 mol/L hydrochloric acid was added to each well of the plate, and vortexed for 30 s for mixing. The mixed sample was then extracted with 1000 μL methyl tert-butyl ether by vortex-mixing for 3 min in a platform shaker (Grant, Cambridge, UK). After centrifugation at 12,000 rpm for 10 min, 800 μL of the upper organic layer was transferred from the original sample plates into the respective positions of the new 2.0 mL deep 96-well plates. Extracts were concentrated to dryness by an automated concentration evaporation system at 30 °C under a gentle stream of nitrogen (Turbo Vap 96, Biotage AB, Uppsala, Sweden) for 15 min. After drying, the residue was reconstituted with 100 μL of methanol–water (50:50, v/v) and was then vortexed for 3 min and centrifuged for 10 min at 12,000 rpm. A 5 μL aliquot of the supernatant was injected into the LC-MS/MS system for analysis.\nThe pharmacokinetic analysis was performed using the non-compartmental model analysis. The concentration versus time data and the pharmacokinetic parameters including Cmax, t1/2, Tmax (h), AUC0-t, AUC0-12, MRT, CL, and Vd were assessed via non-compartmental analysis using the BAPP software (version 2.0, Center of Drug Metabolism and Pharmacokinetics, China Pharmaceutical University, Nanjing, china). The absolute bioavailability (%F) of sodium danshensu was estimated via AUC0→∞ values of oral and intravenous administration."}, "[2]": {"assay": "Stability of sodium danshensu in beagle dog plasma (QC samples)", "type": "in vitro ADME", "settings": "for Measured (mean ± SD): n = 3; for long-term stability in plasma (in words): beagle dog plasma stored at −80 °C for 20 days", "experimental": "The analyte stability determinations comprised ambient temperature stability, long-term stability, autosampler stability, and freeze-thaw cycle stability, which were evaluated by analyzing two QC levels in triplicate. The QC samples were analyzed after storage at room temperature for 2 h, at −80 °C for 20 days, and in the autosampler at room temperature for at least 24 h after extraction and after three freeze-thaw cycles, which consisted of storage at −80 °C for a minimum of 12 h followed by thawing at room temperature."}, "[3]": {"settings": "dog, plasma, IV 5 mg/kg, beagle dogs"}, "[4]": {"settings": "dog, plasma, IV 10 mg/kg, beagle dogs"}, "[5]": {"settings": "dog, plasma, IV 15 mg/kg, beagle dogs"}, "[6]": {"settings": "dog, plasma, PO 60 mg/kg, beagle dogs"}}}
{"compound": "O=C([O-])[C@H](O)Cc1ccc(O)c(O)c1.[Na+]", "note": "[sodium danshensu, sodium D-(+)-β-(3,4-dihydroxyphenyl) lactate]", "values": [{"measurement": "AUC(0-inf)", "setting": "[1]; [3]", "result": "6870 ± 780", "unit": "ng·h/mL"}, {"measurement": "AUC(0-t)", "setting": "[1]; [3]", "result": "6710 ± 810", "unit": "ng·h/mL"}, {"measurement": "MRT", "setting": "[1]; [3]", "result": "0.88 ± 0.41", "unit": "h"}, {"measurement": "Vd", "setting": "[1]; [3]", "result": "6.63 ± 3.49", "unit": "L"}, {"measurement": "clearance", "setting": "[1]; [3]", "result": 123, "unit": "mL/min"}, {"measurement": "half-life", "setting": "[1]; [3]", "result": "2.3 ± 1.23", "unit": "h"}, {"measurement": "C0", "setting": "[1]; [3]", "result": "36600 ± 3840", "unit": "ng/mL"}, {"measurement": "AUC(0-inf)", "setting": "[1]; [4]", "result": "8460 ± 430", "unit": "ng·h/mL"}, {"measurement": "AUC(0-t)", "setting": "[1]; [4]", "result": "8270 ± 380", "unit": "ng·h/mL"}, {"measurement": "MRT", "setting": "[1]; [4]", "result": "1.08 ± 0.53", "unit": "h"}, {"measurement": "Vd", "setting": "[1]; [4]", "result": "12.8 ± 5.5", "unit": "L"}, {"measurement": "clearance", "setting": "[1]; [4]", "result": 197, "unit": "mL/min"}, {"measurement": "half-life", "setting": "[1]; [4]", "result": "2.32 ± 1.33", "unit": "h"}, {"measurement": "C0", "setting": "[1]; [4]", "result": "46700 ± 15200", "unit": "ng/mL"}, {"measurement": "AUC(0-inf)", "setting": "[1]; [5]", "result": "17800 ± 3040", "unit": "ng·h/mL"}, {"measurement": "AUC(0-t)", "setting": "[1]; [5]", "result": "17800 ± 3030", "unit": "ng·h/mL"}, {"measurement": "MRT", "setting": "[1]; [5]", "result": "0.73 ± 0.05", "unit": "h"}, {"measurement": "Vd", "setting": "[1]; [5]", "result": "6.36 ± 1.48", "unit": "L"}, {"measurement": "clearance", "setting": "[1]; [5]", "result": 144, "unit": "mL/min"}, {"measurement": "half-life", "setting": "[1]; [5]", "result": "1.64 ± 0.39", "unit": "h"}, {"measurement": "C0", "setting": "[1]; [5]", "result": "79200 ± 18900", "unit": "ng/mL"}, {"measurement": "AUC(0-inf)", "setting": "[1]; [6]", "result": "22700 ± 2570", "unit": "ng·h/mL"}, {"measurement": "AUC(0-t)", "setting": "[1]; [6]", "result": "22200 ± 2480", "unit": "ng·h/mL"}, {"measurement": "Cmax", "setting": "[1]; [6]", "result": "7920 ± 1770", "unit": "ng/mL"}, {"measurement": "MRT", "setting": "[1]; [6]", "result": "4.23 ± 0.2", "unit": "h"}, {"measurement": "Tmax", "setting": "[1]; [6]", "result": "2.83 ± 0.41", "unit": "h"}, {"measurement": "half-life", "setting": "[1]; [6]", "result": "1.84 ± 0.29", "unit": "h"}, {"measurement": "bioavailability", "setting": "[1]; dog, plasma, beagle dogs, estimated via AUC0→∞ of oral (60 mg/kg) and intravenous administration, read-out: mean absolute bioavailability (%F)", "result": 34.8, "unit": "%"}, {"measurement": "concentration at 1.5 h", "setting": "[1]; one beagle dog plasma sample, 1.5 h after intravenous 10 mg/kg, read-out: assayed plasma concentration", "result": 930, "unit": "ng/mL"}, {"measurement": "RE (relative error vs spiked)", "setting": "[2]; ambient temperature 2 h, spiked 20 ng/mL", "result": 5.0, "unit": "%"}, {"measurement": "Measured (mean ± SD)", "setting": "[2]; ambient temperature 2 h, spiked 20 ng/mL, beagle dog plasma", "result": "21.00 ± 1.42", "unit": "ng/mL"}, {"measurement": "RE (relative error vs spiked)", "setting": "[2]; ambient temperature 2 h, spiked 800 ng/mL", "result": "−3.6", "unit": "%"}, {"measurement": "Measured (mean ± SD)", "setting": "[2]; ambient temperature 2 h, spiked 800 ng/mL, beagle dog plasma", "result": "771.45 ± 23.94", "unit": "ng/mL"}, {"measurement": "Measured (mean ± SD)", "setting": "[2]; autosampler 24 h (extracted samples), spiked 20 ng/mL", "result": "20.10 ± 1.22", "unit": "ng/mL"}, {"measurement": "Measured (mean ± SD)", "setting": "[2]; autosampler 24 h (extracted samples), spiked 800 ng/mL", "result": "772.49 ± 29.64", "unit": "ng/mL"}, {"measurement": "RE (relative error vs spiked)", "setting": "[2]; autosampler 24 h, spiked 20 ng/mL", "result": 0.5, "unit": "%"}, {"measurement": "RE (relative error vs spiked)", "setting": "[2]; autosampler 24 h, spiked 800 ng/mL", "result": "−3.4", "unit": "%"}, {"measurement": "long-term stability in plasma (in words)", "setting": "[2]", "result": "stable"}, {"measurement": "long-term stability in plasma (in words)", "setting": "[2]; listed as sodiusm danshensu", "result": "Excellent stability"}, {"measurement": "ambient temperature stability in plasma (in words)", "setting": "[2]; beagle dog plasma, ambient temperature for 2 h", "result": "Excellent stability"}, {"measurement": "autosampler stability (in words)", "setting": "[2]; extracted samples kept in the autosampler for 24 h", "result": "No degradation"}, {"measurement": "RE (relative error vs spiked)", "setting": "[2]; long-term 20 days at −80 °C, spiked 20 ng/mL", "result": 2.5, "unit": "%"}, {"measurement": "Measured (mean ± SD)", "setting": "[2]; long-term 20 days at −80 °C, spiked 20 ng/mL, beagle dog plasma", "result": "20.50 ± 1.13", "unit": "ng/mL"}, {"measurement": "RE (relative error vs spiked)", "setting": "[2]; long-term 20 days at −80 °C, spiked 800 ng/mL", "result": 3.1, "unit": "%"}, {"measurement": "Measured (mean ± SD)", "setting": "[2]; long-term 20 days at −80 °C, spiked 800 ng/mL, beagle dog plasma", "result": "825.29 ± 55.20", "unit": "ng/mL"}, {"measurement": "freeze-thaw stability, deviation of the concentration (in words)", "setting": "[2]; three cycles of freezing and thawing", "result": "within the acceptable limit"}, {"measurement": "RE (relative error vs spiked)", "setting": "[2]; three freeze-thaw cycles at −80 °C, spiked 20 ng/mL", "result": 7.2, "unit": "%"}, {"measurement": "Measured (mean ± SD)", "setting": "[2]; three freeze-thaw cycles at −80 °C, spiked 20 ng/mL, beagle dog plasma", "result": "21.45 ± 0.88", "unit": "ng/mL"}, {"measurement": "RE (relative error vs spiked)", "setting": "[2]; three freeze-thaw cycles at −80 °C, spiked 800 ng/mL", "result": "−0.2", "unit": "%"}, {"measurement": "Measured (mean ± SD)", "setting": "[2]; three freeze-thaw cycles at −80 °C, spiked 800 ng/mL, beagle dog plasma", "result": "798.54 ± 47.76", "unit": "ng/mL"}]}
